Results published in patent US20090062258A1, “FUSED PYRIMIDINE DERIVATIVE AND USE THEREOF” (Takeda Pharmaceutical Company Limited, priority 2005, published 2009).

Each molecule was assayed against T1, human GnRH receptor (Homo sapiens, UniProt P30968) (assay: 125I-leuprorelin binding assay (binding inhibitory rate)). Settings: 10 nM of the testing compound; 800 pM 125I-leuprorelin; 10 μg human GnRH receptor membrane fraction (CHO cells); room temperature 1 hour; read-out: Binding inhibitory ratio (%).
T1 construct: expressed in transfected cells; host or cells: CHO (Chinese Hamster Ovary) cells; membrane fraction
T1 sequence (P30968 1-328): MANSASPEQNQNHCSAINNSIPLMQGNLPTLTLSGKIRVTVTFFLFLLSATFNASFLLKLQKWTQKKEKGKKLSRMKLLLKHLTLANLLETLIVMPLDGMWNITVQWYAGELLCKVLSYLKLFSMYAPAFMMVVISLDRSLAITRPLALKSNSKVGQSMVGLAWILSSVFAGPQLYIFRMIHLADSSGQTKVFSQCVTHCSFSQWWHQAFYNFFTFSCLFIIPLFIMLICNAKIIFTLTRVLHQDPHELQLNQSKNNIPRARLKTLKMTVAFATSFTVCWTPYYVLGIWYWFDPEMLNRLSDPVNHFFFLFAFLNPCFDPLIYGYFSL
Protocol: 10 μL of a 3×10^−4 M aqueous solution of leuprorelin and 10 μL of 0.01 mg/mL lactoperoxidase were placed in a tube, and 10 μL (37 MBq) of a Na^125I solution was added thereto. After stirring, 10 μL of 0.001% H2O2 was added to allow the mixture to undergo a reaction at room temperature for 20 minutes. 700 μL of a 0.05% TFA solution was added to stop the reaction, and purification by reversed phase HPLC was carried out. The conditions for HPLC are described below. ^125I-leuprorelin was eluted at a retention time of 26 to 27 minutes.
Human GnRH receptor-expressing CHO cells were cultured until the cells were reached a 90% confluent state in a T-150 flask. The cells were separated using 0.02% EDTA-PBS and were centrifuged at 500×g for 5 minutes. A homogenate buffer for cells (10 mM NaHCO3, 1 mM EDTA, 1 mM PMSF, 0.5 μg/mL Pepstatin, 2 μg/mL Leupeptin, pH 7.4) was added to the cell pellet, and the mixture was homogenized with a Polytron homogenizer. After centrifugation of the homogenate at 4° C. and at 1000×g for 10 minutes, the supernatant was placed in an ultracentrifuge tube and was centrifuged at 4° C. and at 49,300×g for 1 hour to obtain a precipitate of a membrane fraction. This precipitate was suspended in an assay buffer (50 mM Tris-HCl, 150 mM NaCl, 5 mM EDTA, pH 7.4) and then dispensed and stored at −80° C., so that the suspension can be thawed every time it is taken for use.
A ^125I-leuprorelin binding assay was carried out using 200 μL of an assay buffer containing 10 μg of human GnRH receptor membrane fraction, 800 pM of ^125I-leuprorelin and 10 nM of the testing compound.
The non-specific binding radioactivity was measured in the presence of 1 μM of non-labeled leuprorelin. After leaving the mixture to stand at room temperature for 1 hour, ^125I-leuprorelin was captured on a GF/C filter (PerkinElmer, Inc.), and the filter was washed with ice-cold 50 mM Tris-HCl (pH 7.4) using a cell harvester. After drying the filter, a liquid scintillation cocktail for microplate was added, and the membrane-bound radioactivity was measured using a TopCount.
The value of (TB-SB)/(TB-NSB)×100 (SB: radioactivity upon addition of the compound, TB: maximum binding radioactivity, NSB: non-specific binding radioactivity) was calculated to determine the binding inhibitory rate in the presence of 10 nM of each testing material.

Structure (SMILES) | inhibition at 0.01 µM [%]
O=c1[nH]c2ccsc2c(=O)n1-c1cccc(S(=O)(=O)N2CCCc3ccccc32)c1 [Example 1, 3-[3-(3,4-Dihydroquinolin-1(2H)-ylsulfonyl)phenyl]thieno[3,2-d]pyrimidin-2,4(1H,3H)-dione] | 86
O=C(O)c1scc2[nH]c(=O)n(-c3cc(S(=O)(=O)N4CCCCc5sccc54)sc3Cl)c(=O)c12 [Example 6, 3-[2-Chloro-5-(5,6,7,8-tetrahydro-4H-thieno[3,2-b]azepin-4-ylsulfonyl)-3-thienyl]-2,4-dioxo-1,2,3,4-tetrahydrothieno[3,4-d]pyrimidine-5-carboxylic acid] | 97
CC(C)(C)OC(=O)CNC(=O)c1scc2[nH]c(=O)n(-c3cccc(S(=O)(=O)N4CCCc5ccccc54)c3)c(=O)c12 [Example 7 (1), N-({3-[3-(3,4-Dihydroquinolin-1(2H)-ylsulfonyl)phenyl]-2,4-dioxo-1,2,3,4-tetrahydrothieno[3,4-d]pyrimidin-5-yl}carbonyl) glycine tert-butyl ester] | 92
Cc1nnc(-c2scc3[nH]c(=O)n(-c4cccc(S(=O)(=O)N5CCCc6ccccc65)c4)c(=O)c23)o1 [Example 12, 3-[3-(3,4-dihydroquinolin-1(2H)-ylsulfonyl)phenyl]-5-(5-methyl-1,3,4-oxadiazol-2-yl)thieno[3,4-d]pyrimidin-2,4(1H,3H)-dione] | 72
CNC(=O)c1scc2[nH]c(=O)n(-c3cc(S(=O)(=O)N4CCCc5ccccc54)ccc3Cl)c(=O)c12 [Example 16, 3-[2-Chloro-5-(3,4-dihydroquinolin-1(2H)-ylsulfonyl)phenyl]-N-methyl-2,4-dioxo-1,2,3,4-tetrahydrothieno[3,4-d]pyrimidine-5-carboxamide] | 96
CC(O)c1scc2[nH]c(=O)n(-c3cccc(S(=O)(=O)N4CCCc5ccccc54)c3)c(=O)c12 (stereo not drawn) [Example 24, 3-[3-(3,4-Dihydroquinolin-1(2H)-ylsulfonyl)phenyl]-5-(1-hydroxyethyl)thieno[3,4-d]pyrimidin-2,4(1H,3H)-dione] | 95
COC(=O)c1scc2[nH]c(=O)n(-c3cc(S(=O)(=O)N4CCCc5ccccc54)cs3)c(=O)c12 [Example 30, Methyl 3-[4-(3,4-dihydroquinolin-1(2H)-ylsulfonyl)-2-thienyl]-2,4-dioxo-1,2,3,4-tetrahydrothieno[3,4-d]pyrimidine-5-carboxylate] | 110
O=c1[nH]c2csc(CO)c2c(=O)n1-c1cc(S(=O)(=O)N2CCCc3ccccc32)cs1 [Example 31, 3-[4-(3,4-Dihydroquinolin-1(2H)-ylsulfonyl)-2-thienyl]-5-(hydroxymethyl)thieno[3,4-d]pyrimidin-2,4(1H,3H)-dione] | 100
CCN(C(=O)c1csc(-n2c(=O)[nH]c3csc(C(=O)O)c3c2=O)c1)c1ccccc1 [Example 33-2, 3-(4-{[Ethyl(phenyl)amino]carbonyl}-2-thienyl)-2,4-dioxo-1,2,3,4-tetrahydrothieno[3,4-d]pyrimidine-5-carboxylic acid] | 85
O=C(O)c1csc2[nH]c(=O)n(-c3cccc(S(=O)(=O)N4CCCc5ccccc54)c3)c(=O)c12 [Example 34 (3), 3-[3-(3,4-Dihydroquinolin-1(2H)-ylsulfonyl)phenyl]-2,4-dioxo-1,2,3,4-tetrahydrothieno[2,3-d]pyrimidine-5-carboxylic acid] | 100
COC(=O)c1scc2[nH]c(=O)n(-c3cc(C(=O)N(c4cccc(Br)c4Cl)C4CC4)sc3Cl)c(=O)c12 [Example 37, Methyl 3-(5-{[(3-bromo-2-chlorophenyl)(cyclopropyl)amino]carbonyl}-2-chloro-3-thienyl)-2,4-dioxo-1,2,3,4-tetrahydrothieno[3,4-d]pyrimidine-5-carboxylate] | 100
COC(=O)c1scc2[nH]c(=O)n(-c3cc(C(=O)N(c4cccc(C#N)c4Cl)C4CC4)sc3Cl)c(=O)c12 [Example 38, Methyl 3-(2-chloro-5-{[(2-chloro-3-cyanophenyl)(cyclopropyl)amino]carbonyl}-3-thienyl)-2,4-dioxo-1,2,3,4-tetrahydrothieno[3,4-d]pyrimidine-5-carboxylate] | 95
N#Cc1cccc(N(C(=O)c2cc(-n3c(=O)[nH]c4csc(CO)c4c3=O)c(Cl)s2)C2CC2)c1Cl [Example 39, 5-Chloro-N-(2-chloro-3-cyanophenyl)-N-cyclopropyl-4-[5-(hydroxymethyl)-2,4-dioxo-1,2-dihydrothieno[3,4-d]pyrimidine-3(4H)-yl]thiophene-2-carboxamide] | 101
N#Cc1cccc(N(C(=O)c2cc(-n3c(=O)[nH]c4csc(C(=O)O)c4c3=O)c(Cl)s2)C2CC2)c1Cl [Example 40, 3-(2-Chloro-5-{[(2-chloro-3-cyanophenyl)(cyclopropyl)amino]carbonyl}-3-thienyl)-2,4-dioxo-1,2,3,4-tetrahydrothieno[3,4-d]pyrimidine-5-carboxylic acid] | 101
N#Cc1cccc(N(C(=O)c2cc(-n3c(=O)[nH]c4csc(C(N)=O)c4c3=O)c(Cl)s2)C2CC2)c1Cl [Example 41, 3-(2-Chloro-5-{[(2-chloro-3-cyanophenyl)(cyclopropyl)amino]carbonyl}-3-thienyl)-2,4-dioxo-1,2,3,4-tetrahydrothieno[3,4-d]pyrimidine-5-carboxamide] | 100
